Activity calls are given as the source filed them. How the calls were made is not given here.

In the test the test system is Clostridioides difficile clinical isolate growth, OD600, 24 h. The test is described as follows: C. difficile growth inhibition, confirmation, 4-point retest (AID 1224921).
For the compound `COc1ccc(CN(C)C[C@H]2Oc3c(NC(=O)Nc4ccc(C(F)(F)F)cc4)cccc3C(=O)N([C@@H](C)CO)C[C@H]2C)cc1`, the AC50 (commonly the concentration giving half of the maximal activity seen) is 1.65 µM.
The value for `C[C@@H]1CN([C@H](C)CO)S(=O)(=O)c2ccc(C#CCC3CCCC3)cc2O[C@H]1CN(C)C` was 16.9 µM.
For the compound `CS(=O)(=O)N1[C@H](C#N)[C@@H](c2ccc(C#CC3CCCC3)cc2)[C@@H]1CO`, the AC50 was > 70 µM (inactive).
Take `C[C@@H]1CN([C@H](C)CO)C(=O)c2cccc(NC(=O)Nc3ccc(C(F)(F)F)cc3)c2O[C@@H]1CN(C)C(=O)Nc1ccccc1`: the half-maximal activity concentration (AC50) was 32.9 µM.
The value for `O=C(C[C@H]1CC[C@@H]2[C@H](COC[C@@H](O)CN2C(=O)Nc2cc(Cl)cc(Cl)c2)O1)N1CCOCC1` was 15.3 µM.
As to `C[C@H](CO)N1C[C@H](C)[C@H](CN(C)CC2CCCCC2)OCCCC[C@H](C)Oc2ccc(NC(=O)Nc3cccc4ccccc34)cc2C1=O`, the half-maximal activity concentration (AC50) is 29 µM.
The value for `Cc1ccc(S(=O)(=O)N2C[C@@H](O)COC[C@H]3O[C@H](CC(=O)NCc4ccc(Cl)c(Cl)c4)CC[C@@H]32)cc1` was > 60 µM (inactive); that for `COc1ccc(CN(C)C[C@@H]2OCCCC[C@H](C)Oc3ccc(NC(=O)Nc4cccc5ccccc45)cc3C(=O)N([C@H](C)CO)C[C@H]2C)cc1` was 22.6 µM; that for `COc1ccccc1S(=O)(=O)N[C@@H]1C=C[C@@H](CC(=O)N2CCCCC2)O[C@H]1CO` was > 60 µM (inactive).
In the case of `O=C(C[C@H]1CC[C@H]2[C@@H](COC[C@H](O)CN2S(=O)(=O)c2ccccc2)O1)NCC1CCCCC1`, the AC50 was 13.5 µM.
The value for `CNC(=O)C[C@H]1CC[C@@H]2[C@H](COC[C@@H](O)CN2C(=O)Nc2ccc(Cl)c(Cl)c2)O1` was 8.58 µM; that for `O=C(C[C@@H]1CC[C@@H]2[C@H](COC[C@@H](O)CN2C(=O)Nc2ccc(Cl)c(Cl)c2)O1)NCc1ccncc1` was 4.07 µM.
Take `COc1ccc(C#Cc2cnc3c(c2)C(=O)N([C@@H](C)CO)C[C@@H](C)[C@H](CN(C)CC2CCCC2)O3)cc1`: the AC50 is 13.1 µM.
Then `C[C@@H]1CCCCO[C@@H](CN(C)CC2CC2)[C@H](C)CN([C@H](C)CO)C(=O)c2cc(NC(=O)Nc3ccc(C(F)(F)F)cc3)ccc2O1`, with 15.9 µM; and `O=C(C[C@H]1CC[C@H]2[C@@H](COC[C@@H](O)CN2C(=O)Nc2ccc(Cl)c(Cl)c2)O1)NCc1ccc(Cl)c(Cl)c1`, with 1.08 µM.
`CCC(=O)N[C@H]1CC[C@H](CCNC(=O)Nc2ccc(C(F)(F)F)cc2)O[C@H]1CO`: the half-maximal activity concentration (AC50) is 16.5 µM.
Then `O=C(NCC[C@H]1CC[C@@H](NC(=O)c2cccnc2)[C@@H](CO)O1)Nc1ccc(C(F)(F)F)cc1`, with 2.9 µM.
As to `C[C@@H]1CN([C@@H](C)CO)C(=O)c2cc(NC(=O)Nc3ccc(C(F)(F)F)cc3)ccc2O[C@@H](C)CCCCO[C@H]1CN(C)Cc1ccccc1`, the AC50 was 26.9 µM.
The value for `CO[C@@H]1CN(C)C(=O)c2ccc(NC(=O)Nc3cc(Cl)cc(Cl)c3)cc2OC[C@H](C)NC[C@H]1C` was 7.81 µM; that for `CNC[C@@H]1OCCCC[C@@H](C)Oc2ccc(NC(=O)Nc3ccc(C(F)(F)F)cc3)cc2C(=O)N([C@@H](C)CO)C[C@@H]1C` was 17.5 µM.
Then `C[C@@H]1CN([C@@H](C)CO)C(=O)c2cccc(NC(=O)Nc3ccc(C(F)(F)F)cc3)c2O[C@@H]1CN(C)C(=O)Nc1ccc(F)cc1`, with 30 µM.
Then `C[C@@H]1CCCCO[C@@H](CN(C)Cc2ccccc2)[C@H](C)CN([C@H](C)CO)C(=O)c2cc(NC(=O)Nc3ccc(C(F)(F)F)cc3)ccc2O1`, with 21.9 µM.
In the case of `Cc1ccc(S(=O)(=O)N[C@H]2CC[C@@H](CCNC(=O)Nc3ccc(Cl)cc3)O[C@H]2CO)cc1`, the AC50 was 18.2 µM.
Then `CO[C@@H](CN(C)C(=O)C1CCOCC1)[C@@H](C)CN(C(=O)Nc1ccc(C(F)(F)F)cc1)[C@@H](C)CO`, with 3.66 µM.
Then `CO[C@H]1CN(C)C(=O)c2ccc(NC(=O)Nc3cc(Cl)cc(Cl)c3)cc2OC[C@H](C)NC[C@H]1C`, with 14 µM.
The value for `COC(=O)[C@H]1[C@H](CO)[C@H]2Cn3c(ccc(-c4ccccc4)c3=O)[C@H]2N1CC1CCCCC1` was 16.7 µM.
Consider `O=C1C[C@@](C(=O)NCCN2CCOCC2)(c2ccc([N+](=O)[O-])cc2)[C@@H](c2ccc(CO)cc2I)N1CC12CC3CC(CC(C3)C1)C2`, for which the half-maximal activity concentration (AC50) was 18.8 µM.
Regarding `CCNC(=O)C[C@H]1CC[C@@H]2[C@H](COC[C@H](O)CN2C(=O)Nc2ccc(Cl)c(Cl)c2)O1`, the AC50 was 3.02 µM.
The value for `CCCNC(=O)C[C@@H]1CC[C@@H]2[C@H](COC[C@H](O)CN2C(=O)Nc2ccc(Cl)c(Cl)c2)O1` was 3.54 µM.
Then `O=C(NCC[C@@H]1CC[C@H](NC(=O)C2CC2)[C@@H](CO)O1)Nc1ccc(C(F)(F)F)cc1`, with 1.95 µM; and `O=C(C[C@H]1CC[C@H]2[C@@H](COC[C@@H](O)CN2C(=O)Nc2cc(Cl)cc(Cl)c2)O1)NCC1CC1`, with 10.9 µM; and `C[C@@H]1CCCCO[C@H](CN(C)CC2CCCCC2)[C@H](C)CN([C@H](C)CO)C(=O)c2cc(NC(=O)Nc3ccc(C(F)(F)F)cc3)ccc2O1`, with 13.6 µM.
Then `CO[C@@H](CN(C)C(=O)C1CCOCC1)[C@@H](C)CN(C(=O)Nc1ccc(C(F)(F)F)cc1)[C@H](C)CO`, with 6.17 µM; and `O=C(C[C@H]1CC[C@@H]2[C@H](COC[C@@H](O)CN2C(=O)Nc2ccc(Cl)c(Cl)c2)O1)NCc1ccc(Cl)c(Cl)c1`, with 3.34 µM; and `O=C(C[C@H]1CC[C@H]2[C@@H](COC[C@@H](O)CN2C(=O)Nc2ccc(C(F)(F)F)cc2)O1)NC1Cc2ccccc2C1`, with 7.54 µM.
In the case of `O=C(C[C@H]1CC[C@H]2[C@@H](COC[C@@H](O)CN2C(=O)Nc2ccc(C(F)(F)F)cc2)O1)NCC1CCCCC1`, the concentration at half-maximal activity (AC50) is 1.27 µM.
`CO[C@H]1CN(C)C(=O)c2ccc(NC(=O)Nc3cc(Cl)cc(Cl)c3)cc2OC[C@@H](C)NC[C@H]1C`: the AC50 was 15.1 µM.
Then `C[C@H]1CN([C@@H](C)CO)S(=O)(=O)c2ccc(C#Cc3ccc(F)cc3)cc2O[C@@H]1CN(C)C`, with 34.2 µM; and `O=C(C[C@H]1CC[C@H]2[C@@H](COC[C@H](O)CN2C(=O)Nc2cc(Cl)cc(Cl)c2)O1)N1CCOCC1`, with 4.04 µM; and `C[C@@H]1CN([C@@H](C)CO)C(=O)c2cccc(NC(=O)Nc3ccccc3)c2O[C@@H]1CN(C)Cc1ccc(C(F)(F)F)cc1`, with 8.02 µM.
Then `O=C(C[C@H]1CC[C@H]2[C@@H](COC[C@H](O)CN2C(=O)Nc2ccc(Cl)c(Cl)c2)O1)NCc1ccc(Cl)c(Cl)c1`, with 0.886 µM; and `CO[C@@H]1CN(C)C(=O)c2cc(NC(=O)Nc3ccc(Cl)c(Cl)c3)ccc2OC[C@@H](C)NC[C@@H]1C`, with 4.25 µM; and `O=C(C[C@@H]1CC[C@H]2[C@@H](COC[C@H](O)CN2C(=O)Nc2ccc(Cl)c(Cl)c2)O1)NCc1ccc(Cl)cc1`, with 2.61 µM.
Then `CO[C@@H](CN(C)C(=O)C1CC1)[C@@H](C)CN(C(=O)Nc1ccc(C(F)(F)F)cc1)[C@H](C)CO`, with 14.7 µM.
On to `O=C(C[C@H]1CC[C@@H]2[C@H](COC[C@@H](O)CN2C(=O)Nc2ccc(Cl)c(Cl)c2)O1)NCc1ccncc1`, for which the half-maximal activity concentration (AC50) was 4.06 µM.
The value for `Cc1noc(C)c1S(=O)(=O)Nc1ccc2c(c1)C(=O)N([C@@H](C)CO)C[C@H](C)[C@@H](CN(C)Cc1ccc3c(c1)OCO3)OCCCC[C@@H](C)O2` was 11.7 µM; that for `C[C@@H]1CN([C@@H](C)CO)C(=O)c2cccc(NC(=O)Nc3ccc(C(F)(F)F)cc3)c2O[C@@H]1CN(C)Cc1ccc(Oc2ccccc2)cc1` was less than 0.5 µM; that for `O=C(C[C@H]1CC[C@@H]2[C@H](COC[C@@H](O)CN2S(=O)(=O)c2ccc(F)cc2)O1)NCC1CCCCC1` was 15.8 µM.
Then `O=C(C[C@@H]1CC[C@@H]2[C@H](COC[C@@H](O)CN2C(=O)Nc2ccc(C(F)(F)F)cc2)O1)NC1Cc2ccccc2C1`, with 2.27 µM.
The value for `COc1ccc(S(=O)(=O)Nc2cccc3c2O[C@H](CN(C)Cc2ccc(Oc4ccccc4)cc2)[C@H](C)CN([C@@H](C)CO)C3=O)cc1` was 3.67 µM; that for `CO[C@@H]1CN(C)C(=O)c2cc(NC(=O)Nc3ccc(C(F)(F)F)cc3)ccc2OC[C@H](C)NC[C@H]1C` was 17.8 µM.
`CCNC(=O)C[C@H]1CC[C@H]2[C@@H](COC[C@@H](O)CN2C(=O)Nc2ccc(Cl)c(Cl)c2)O1`: the AC50 was 3.9 µM.
The value for `CC(=O)N[C@@H]1CC[C@H](CCNC(=O)Nc2ccc(C(F)(F)F)cc2)O[C@H]1CO` was 11.8 µM.
Consider `C[C@@H]1CN([C@H](C)CO)S(=O)(=O)c2ccc(C#CC3CCCCC3)cc2O[C@@H]1CN(C)C`, for which the AC50 was 16.9 µM.
The value for `C[C@@H]1CN([C@H](C)CO)C(=O)c2cc(NC(=O)Nc3ccc(C(F)(F)F)cc3)ccc2O[C@@H](C)CCCCO[C@H]1CN(C)Cc1ccc2c(c1)OCO2` was 7.9 µM; that for `C[C@H](CO)N1C[C@H](C)[C@@H](CN(C)CC2CCCC2)Oc2ncc(C#CCc3ccccc3)cc2C1=O` was > 60 µM (inactive); that for `CO[C@H]1CN(C)C(=O)c2cc(NC(=O)Nc3cc(Cl)cc(Cl)c3)ccc2OC[C@H](C)NC[C@@H]1C` was 9.09 µM.
Then `O=C(C[C@@H]1CC[C@@H]2[C@H](COC[C@H](O)CN2C(=O)Nc2cc(Cl)cc(Cl)c2)O1)NCC1CC1`, with 16.9 µM; and `C[C@@H](NC(=O)C[C@@H]1CC[C@@H]2[C@H](COC[C@H](O)CN2C(=O)Nc2cc(Cl)cc(Cl)c2)O1)c1ccccc1`, with 9.64 µM.
The value for `C[C@@H]1CN([C@@H](C)CO)C(=O)c2cc(NC(=O)Nc3ccc(C(F)(F)F)cc3)ccc2O[C@@H](C)CCCCO[C@H]1CN(C)Cc1ccc2c(c1)OCO2` was 23.9 µM; that for `Cc1cc(C(=O)Nc2cccc3c2O[C@@H](CN(C)Cc2ccc(-c4ccccc4)cc2)[C@H](C)CN([C@@H](C)CO)C3=O)n(C)n1` was 1.01 µM.
On to `C[C@@H]1CN([C@@H](C)CO)C(=O)c2c(c3ccccc3n2C)-c2ccccc2CO[C@@H]1CN(C)Cc1ccncc1`, for which the AC50 is > 60 µM (inactive).
The value for `CO[C@H](CN(C)C(=O)C1CCOCC1)[C@H](C)CN(C(=O)Nc1ccc(C(F)(F)F)cc1)[C@@H](C)CO` was 4.13 µM; that for `COc1ccc(CN(C)C[C@H]2OCCCC[C@H](C)Oc3ccc(NC(=O)Nc4ccc(C(F)(F)F)cc4)cc3C(=O)N([C@@H](C)CO)C[C@@H]2C)cc1` was 16.6 µM.
The value for `C[C@H]1CCCCO[C@@H](CN(C)CC2CCCCC2)[C@@H](C)CN([C@@H](C)CO)C(=O)c2cc(NC(=O)Nc3ccc(C(F)(F)F)cc3)ccc2O1` was 17.3 µM.

Values taken from PubChem BioAssay AID1224921 (Broad Institute, 2016).
